{
  "source": "patent US12428406B2",
  "about": "(PMV Pharmaceuticals, Inc., priority 2019, dated 2025)",
  "data": [
    {"molecular_target": "T1, p53 Y220C (Homo sapiens, UniProt P04637, Y220C)", "T1 construct": "The recombinant protein was a truncation mutant containing only amino acids 94-312 of p53; made in house; host or cells: E. coli", "T1 sequence (P04637 94-312, change not shown)": "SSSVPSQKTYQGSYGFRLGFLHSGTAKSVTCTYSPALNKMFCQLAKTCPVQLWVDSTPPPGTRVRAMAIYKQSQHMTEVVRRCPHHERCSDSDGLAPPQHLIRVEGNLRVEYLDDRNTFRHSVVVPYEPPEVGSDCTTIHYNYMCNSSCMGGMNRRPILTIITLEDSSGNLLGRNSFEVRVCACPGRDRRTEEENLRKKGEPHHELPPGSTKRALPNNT", "experiment": "In vitro DNA binding activity assay (HTRF / TR-FRET): stabilization of p53 Y220C and increase of its DNA binding activity", "type": "biochemical", "details": "recombinant His-tagged p53 Y220C DNA binding domain (aa 94-312), biotin-labeled consensus DNA, incubated at 27° C. or 29° C. for 60 min", "outline": "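Test compounds, diluted 3-fold in DMSO from 4.5 mM stocks, were incubated with bacterially expressed His-tagged p53 Y220C at room temperature for 15 min, and after a further step for 20 min. DNA binding was detected by time-resolved FRET between APC and europium labels. SC150 marks the concentration increasing binding by 50%.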", "values": [
      {"smiles": "COCC(O)CN1CCC(Nc2cccc3c2cc(C#CCNc2c(F)cc(S(C)(=O)=O)cc2OC)n3CC(F)(F)F)CC1", "note": "(stereo not drawn) [Compound 714A]", "SC150 (concentration of the compound required to increase the DNA binding activity by 50%)": "++++ (++++ = 0.2 μM ≤ SC150 < 1 μM)"},
      {"smiles": "COc1cc(S(N)(=O)=O)ccc1NCC#Cc1cc2c(N[C@H]3CC[C@@H](N4CC5(COC5)C4)CC3)cccc2n1CC(F)(F)F", "note": "[Compound 204A, 3-methoxy-4-{[3-(4-{[(1R,4R)-4-{2-oxa-6-azaspiro[3.3]heptan-6-yl}cyclohexyl]amino}-1-(2,2,2-trifluoroethyl)-1H-indol-2-yl)prop-2-yn-1-yl]amino}benzene-1-sulfonamide]", "SC150 (concentration of the compound required to increase the DNA binding activity by 50%)": "+ (+ = 0 μM ≤ SC150 < 0.05 μM)"},
      {"smiles": "COc1cc(S(N)(=O)=O)ccc1NCC#Cc1cc2c(NC3CCN(C(=O)C(C)C)CC3)cccc2n1CC(F)(F)F", "note": "[Compound 753A]", "SC150 (concentration of the compound required to increase the DNA binding activity by 50%)": "+ (+ = 0 μM ≤ SC150 < 0.05 μM)"},
      {"smiles": "CNC(=O)c1cc(OC)c(NCC#Cc2cc3c(NC4CCN(C)CC4)cccc3n2CC(F)(F)F)cc1F", "note": "[Compound 516A, 2-fluoro-5-methoxy-N-methyl-4-[(3-{4-[(1-methylpiperidin-4-yl)amino]-1-(2,2,2-trifluoroethyl)-1H-indol-2-yl}prop-2-yn-1-yl)amino]benzamide]", "SC150 (concentration of the compound required to increase the DNA binding activity by 50%)": "+ (+ = 0 μM ≤ SC150 < 0.05 μM)"},
      {"smiles": "COCC(O)CN1CCC(Nc2cccc3c2cc(C#CCNc2ccc(C(=O)NC(C)C)cc2OC)n3CC(F)(F)F)CC1", "note": "(stereo not drawn) [Compound 633A, 4-{[3-(4-{[1-(2-hydroxy-3-methoxypropyl)piperidin-4-yl]amino}-1-(2,2,2-trifluoroethyl)-1H-indol-2-yl)prop-2-yn-1-yl]amino}-3-methoxy-N-(propan-2-yl)benzamide]", "SC150 (concentration of the compound required to increase the DNA binding activity by 50%)": "+ (+ = 0 μM ≤ SC150 < 0.05 μM)"},
      {"smiles": "COc1cc(C(=O)N[C@@H](CCC(N)=O)C(=O)O)ccc1NCC#Cc1cc2c(N[C@@H]3CCN(C)C[C@@H]3F)cccc2n1CC(F)(F)F", "note": "[Compound 930A, (2S)-4-carbamoyl-2-[(4-{[3-(4-{[(3S,4R)-3-fluoro-1-methylpiperidin-4-yl]amino}-1-(2,2,2-trifluoroethyl)-1H-indol-2-yl)prop-2-yn-1-yl]amino}-3-methoxyphenyl)formamido]butanoic acid]", "SC150 (concentration of the compound required to increase the DNA binding activity by 50%)": "+ (+ = 0 μM ≤ SC150 < 0.05 μM)"},
      {"smiles": "CNS(=O)(=O)c1ccc(NCC#Cc2cc3c(NC4CCN(CC(O)COC)CC4)cccc3n2CC(F)(F)F)c(OC)c1", "note": "(stereo not drawn) [Compound 609A]", "SC150 (concentration of the compound required to increase the DNA binding activity by 50%)": "+ (+ = 0 μM ≤ SC150 < 0.05 μM)"},
      {"smiles": "COCCNc1cccc2c1cc(C#CCNc1ccc(S(N)(=O)=O)cc1OC)n2CC(F)(F)F", "note": "[Compound 2A, 3-methoxy-4-[(3-{4-[(2-methoxyethyl)amino]-1-(2,2,2-trifluoroethyl)-1H-indol-2-yl}prop-2-yn-1-yl)amino]benzene-1-sulfonamide]", "SC150 (concentration of the compound required to increase the DNA binding activity by 50%)": "++ (++ = 0.05 μM ≤ SC150 < 0.1 μM)"},
      {"smiles": "CCOc1cc(S(C)(=O)=O)ccc1NCC#Cc1cc2c(N[C@@H]3CCN(C)C[C@@H]3F)cccc2n1CC(F)(F)F", "note": "[Compound 843A]", "SC150 (concentration of the compound required to increase the DNA binding activity by 50%)": "+ (+ = 0 μM ≤ SC150 < 0.05 μM)"},
      {"smiles": "COc1cc(S(C)(=O)=O)ccc1NCC#Cc1cc2c(N[C@H]3CC[C@H](N4CCOCC4)CC3)cccc2n1CCF", "note": "[Compound 176A, 1-(2-fluoroethyl)-2-{3-[(4-methane-sulfonyl-2-methoxy-phenyl)amino]prop-1-yn-1-yl}-N-[(1R,4R)-4-(morpholin-4-yl)cyclo-hexyl]-1H-indol-4-amine]", "SC150 (concentration of the compound required to increase the DNA binding activity by 50%)": "+ (+ = 0 μM ≤ SC150 < 0.05 μM)"},
      {"smiles": "CCOC(=O)c1ccc(NCC#Cc2cc3c(N[C@H]4CCN(C)C[C@H]4F)cccc3n2CC(F)(F)F)c(OC)c1", "note": "[Compound 840A, ethyl 4-((3-(4-(((3R,4S)-3-fluoro-1-methylpiperidin-4-yl)amino)-1-(2,2,2-trifluoroethyl)-1H-indol-2-yl)prop-2-yn-1-yl)amino)-3-methoxybenzoate]", "SC150 (concentration of the compound required to increase the DNA binding activity by 50%)": "+ (+ = 0 μM ≤ SC150 < 0.05 μM)"},
      {"smiles": "COCC(O)CN1CCC(Nc2cccc3c2cc(C#CCNc2ccc(S(=O)(=O)C(C)C)cc2OC)n3CC(F)(F)F)CC1", "note": "(stereo not drawn) [Compound 694A, 1-methoxy-3-(4-{[2-(3-{[2-methoxy-4-(propane-2-sulfonyl)phenyl]amino}prop-1-yn-1-yl)-1-(2,2,2-trifluoroethyl)-1H-indol-4-yl]amino}piperidin-1-yl)propan-2-ol]", "SC150 (concentration of the compound required to increase the DNA binding activity by 50%)": "+ (+ = 0 μM ≤ SC150 < 0.05 μM)"},
      {"smiles": "COc1cc(C(=O)NCC(COC(=O)C(C)C)OC)ccc1NCC#Cc1cc2c(N[C@@H]3CCN(C)C[C@@H]3F)cccc2n1CC(F)(F)F", "note": "(stereo partly drawn) [Compound 1061A, 3-[(4-{[3-(4-{[(3S,4R)-3-fluoro-1-methylpiperidin-4-yl]amino}-1-(2,2,2-trifluoroethyl)-1H-indol-2-yl)prop-2-yn-1-yl]amino}-3-methoxyphenyl)formamido]-2-methoxypropyl 2-methylpropanoate]", "SC150 (concentration of the compound required to increase the DNA binding activity by 50%)": "+ (+ = 0 μM ≤ SC150 < 0.05 μM)"},
      {"smiles": "CCC(=O)OCCN1CCC(Nc2cccc3c2cc(C#CCNc2ccc(S(C)(=O)=O)cc2OC)n3CC(F)(F)F)CC1", "note": "[Compound 585A, 2-{4-[(2-{3-[(4-methanesulfonyl-2-methoxyphenyl)amino]prop-1-yn-1-yl}-1-(2,2,2-trifluoroethyl)-1H-indol-4-yl)amino]piperidin-1-yl}ethyl propanoate]", "SC150 (concentration of the compound required to increase the DNA binding activity by 50%)": "+ (+ = 0 μM ≤ SC150 < 0.05 μM)"},
      {"smiles": "CN1CCC(Nc2cccc3c2cc(C#CCNc2ccc(S(C)(=O)=O)s2)n3CC(F)(F)F)CC1", "note": "[Compound 523A]", "SC150 (concentration of the compound required to increase the DNA binding activity by 50%)": "+ (+ = 0 μM ≤ SC150 < 0.05 μM)"},
      {"smiles": "COc1cc(C(N)=O)ccc1NCC#Cc1cc2c(N[C@H]3CC[C@H](N4CC5(CCOCC5)C4)CC3)cccc2n1CC(F)(F)F", "note": "[Compound 331A, 3-methoxy-4-{[3-(4-{[(1R,4R)-4-{7-oxa-2-azaspiro[3.5]nonan-2-yl}cyclohexyl]amino}-1-(2,2,2-trifluoroethyl)-1H-indol-2-yl)prop-2-yn-1-yl]amino}benzamide]", "SC150 (concentration of the compound required to increase the DNA binding activity by 50%)": "+ (+ = 0 μM ≤ SC150 < 0.05 μM)"},
      {"smiles": "COc1cc(S(C)(=O)=O)ccc1NCC#Cc1cc2c(N[C@H]3CC[C@H](N4CC5CC(C4)O5)CC3)cccc2n1CC(F)(F)F", "note": "[Compound 398A, 2-{3-[(4-methanesulfonyl-2-methoxyphenyl)amino]prop-1-yn-1-yl}-N-[(1R,4R)-4-{6-oxa-3-azabicyclo[3.1.1]heptan-3-yl}cyclohexyl]-1-(2,2,2-trifluoroethyl)-1H-indol-4-amine]", "SC150 (concentration of the compound required to increase the DNA binding activity by 50%)": "+ (+ = 0 μM ≤ SC150 < 0.05 μM)"},
      {"smiles": "CNC(=O)c1ccc(NCC#Cc2cc3c(N[C@H]4CCN(C)C[C@@H]4F)cccc3n2CC(F)(F)F)c(OC)c1", "note": "(racemic) [Compound 785A, rac-4-{[3-(4-{[(3R,4R)-3-fluoro-1-methylpiperidin-4-yl]amino}-1-(2,2,2-trifluoroethyl)-1H-indol-2-yl)prop-2-yn-1-yl]amino}-3-methoxy-N-methylbenzamide]", "SC150 (concentration of the compound required to increase the DNA binding activity by 50%)": "+ (+ = 0 μM ≤ SC150 < 0.05 μM)"},
      {"smiles": "CNC(=O)c1ccc(NCC#Cc2cc3c(N[C@H]4CC[C@H](N5CC6(CCC6)C5)CC4)cccc3n2CC(F)(F)F)c(OC)c1", "note": "[Compound 196A, 3-methoxy-N-methyl-4-{[3-(4-{[(1R,4R)-4-{2-azaspiro[3.3]heptan-2-yl}cyclohexyl]amino}-1-(2,2,2-trifluoroethyl)-1H-indol-2-yl)prop-2-yn-1-yl]amino}benzamide]", "SC150 (concentration of the compound required to increase the DNA binding activity by 50%)": "+ (+ = 0 μM ≤ SC150 < 0.05 μM)"},
      {"smiles": "CN1CC[C@@H](Nc2cccc3c2cc(C#CCNC(=O)C2CC2)n3CC(F)(F)F)[C@@H](F)C1", "note": "[Compound 951A, N-[3-(4-{[(3S,4R)-3-fluoro-1-methylpiperidin-4-yl]amino}-1-(2,2,2-trifluoroethyl)-1H-indol-2-yl)prop-2-yn-1-yl]cyclopropanecarboxamide]", "SC150 (concentration of the compound required to increase the DNA binding activity by 50%)": "+ (+ = 0 μM ≤ SC150 < 0.05 μM)"},
      {"smiles": "COc1cc(S(C)(=O)=O)ccc1NCC#Cc1cc2c(NC3CCN(c4nc(C)cs4)CC3)cccc2n1CC(F)(F)F", "note": "[Compound 719A]", "SC150 (concentration of the compound required to increase the DNA binding activity by 50%)": "+++ (+++ = 0.1 μM ≤ SC150 < 0.2 μM)"},
      {"smiles": "COc1cc(S(N)(=O)=O)ccc1NCC#Cc1cc2c(N[C@H]3CC[C@H](N4CCS(=O)(=O)CC4)CC3)cccc2n1CC(F)(F)F", "note": "[Compound 372A, 3-methoxy-4-{[3-(4-{[(1R,4R)-4-(1,1-dioxo-1λ^6-thiomorpholin-4-yl)cyclohexyl]amino}-1-(2,2,2-trifluoroethyl)-1H-indol-2-yl)prop-2-yn-1-yl]amino}benzene-1-sulfonamide]", "SC150 (concentration of the compound required to increase the DNA binding activity by 50%)": "+ (+ = 0 μM ≤ SC150 < 0.05 μM)"},
      {"smiles": "COc1cc(C(=O)O)ccc1NCC#Cc1cc2c(N[C@@H]3CCN(CC(N)=O)C[C@@H]3F)cccc2n1CC(F)(F)F", "note": "[Compound 926A]", "SC150 (concentration of the compound required to increase the DNA binding activity by 50%)": "+ (+ = 0 μM ≤ SC150 < 0.05 μM)"},
      {"smiles": "COc1cc(S(N)(=O)=O)ccc1NCC#Cc1cc2c(NC3CCN(C[C@H](CO)OC)CC3)cccc2n1CC(F)(F)F", "note": "[Compound 623A, 4-({3-[4-({1-[(2R)-3-hydroxy-2-methoxypropyl]piperidin-4-yl}amino)-1-(2,2,2-trifluoroethyl)-1H-indol-2-yl]prop-2-yn-1-yl}amino)-3-methoxybenzene-1-sulfonamide]", "SC150 (concentration of the compound required to increase the DNA binding activity by 50%)": "+ (+ = 0 μM ≤ SC150 < 0.05 μM)"}
    ]}
  ]
}
